Data from US20040241088A1, “Method for evaluating the efficacy of certain cancer treatments” (Georgetown University, priority 2003, published 2004).

Columns and labels:
[1] = system: 17 kDa fragment of caspase 3; test: 17 kDa fragment of caspase 3 in PANC-1 cells in vitro (Western); format: cell-based, human; details: 9 hours, Gemzar 0.8 μM, ODN 1 μM
Procedure: A. To detect the presence of the 17 kDa active caspase 3 fragment in cell cultures the following procedure was used in subsequent Examples to isolate total protein from both living and dead floating cells. The medium from the cell culture vessel was removed and reserved.
To lyse the cells, resuspend the cell pellet in 150 μl-200 μl RIPA buffer (with freshly prepared inhibitors) per 3×10^6 cells. RIPA buffer is 1×PBS, 1% NP40, 0.5% sodium deoxycholate, 0.1% SDS (this may be made in large volumes). Add inhibitors at time of use from the following stock solutions:
In a further specific embodiment of this invention, it was determined that the cleaved 17 kDa subunit can be detected in tumor and/or blood as a means of verifying the efficacy of therapy with antisense (AS) HER-2, i.e. that the apoptotic pathway is induced by AS HER-2 treatment. […]
Also evaluated in vitro was the induction of the 17 kDa fragment by the combination of the TfRscFv-LipA-AS HER-2 plus the chemotherapeutic agent Gemzar® (gemcitabine).

[2] = system: components of the PI3K/AKT pathway and apoptosis; test: Western analysis of signal transduction and apoptosis proteins in PANC-1 cells; format: cell-based, human
Excerpt: (§1) Treatment of Pancreatic Cancer (PanCa) with the tumor targeting TfRscFv-LipA-AS HER-2 complex can down-regulate HER-2 expression (even when not overexpressed), thus negatively affecting cell growth/survival and positively enhancing apoptotic pathways leading to increased tumor cell killing.
The phosphorothioate sequence specific AS HER-2, complementary to the initiation codon region (5′-TCC ATG GTG CTC ACT-3′), and the control, non-sequence specific SC (5′-CTA GCC ATG CTT GTC-3′) ODNs were synthesized and purified by reverse phase HPLC by Ransom Hill Biosciences (Ramona, Calif.). […] PANC-1 or COLO 357 cells were seeded/in a six well plate and transfected 24 hours later with the TfRscFv-LipA complex carrying 1 μM (for PANC-1) or 0.5 μM (for COLO 357) AS HER-2 or SC HER-2 ODN (negative control). The cells were transfected with either oligo alone or, to look for a synergistic effect, in combination with gemcitabine (Gemzar®). At the indicated times, the cells were harvested, lysed in RIPA buffer, protein determined, run (60 ug total protein/lane) on a 4-20% gradient polyacrylamide/SDS gel and transferred to nitrocellulose for Western analysis as described in Examples 1, 3 and 4. To detect HER-protein expression the membranes were probed with the anti-human HER-2/Neu (C-18) rabbit polyclonal Ab (Santa Cruz Biotechnology) and the signal detected by ECL (Amersham). Change in protein expression as compared to untreated cells was also ascertained for total and/or phosphorylated Akt (Ser 473), a central component in the PI3K pathway (using an anti-Human polyclonal Ab, Cell Signaling Technology),phosphorylated BAD (Ser 136), an important factor in regulation of apoptosis (using an anti-human rabbit polyclonal antibody, Cell Signaling Technology), as well as cleaved caspase 3 (Asp 175) (using the rabbit polyclonal antibody, specific for the 17 kDa subunit, Cell Signaling Technology) and PARP/cleaved PARP (poly ADP ribopolymerase, another marker of apoptosis) using an anti-human rabbit polyclonal antibody, (Cell Signaling Technology) both downstream indicators of apoptosis.

[3] = system: components of the PI3K/AKT pathway and apoptosis; test: Western analysis of signal transduction and apoptosis proteins in COLO357 cells; format: cell-based; details: 8 hrs post-transfection
Excerpt: as §1
The phosphorothioate sequence specific AS HER-2, complementary to the initiation codon region (5′-TCC ATG GTG CTC ACT-3′), and the control, non-sequence specific SC (5′-CTA GCC ATG CTT GTC-3′) ODNs were synthesized and purified by reverse phase HPLC by Ransom Hill Biosciences (Ramona, Calif.). […] PANC-1 or COLO 357 cells were seeded/in a six well plate and transfected 24 hours later with the TfRscFv-LipA complex carrying 1 μM (for PANC-1) or 0.5 μM (for COLO 357) AS HER-2 or SC HER-2 ODN (negative control). The cells were transfected with either oligo alone or, to look for a synergistic effect, in combination with gemcitabine (Gemzar®). At the indicated times, the cells were harvested, lysed in RIPA buffer, protein determined, run (60 ug total protein/lane) on a 4-20% gradient polyacrylamide/SDS gel and transferred to nitrocellulose for Western analysis as described in Examples 1, 3 and 4. To detect HER-protein expression the membranes were probed with the anti-human HER-2/Neu (C-18) rabbit polyclonal Ab (Santa Cruz Biotechnology) and the signal detected by ECL (Amersham). […]

[4] = system: 17 kDa cleaved caspase 3 fragment; test: Tumor-specific localization of the 17 kDa fragment in tumor, liver and lung of PANC-1 xenograft mice; format: in vivo; details: PANC-1 tumor; ODN 10 mg/kg i.v. daily for six days; Gemzar 60 mg/kg i.p. x3; 24 hours after last injection
Procedure: PANC-1 tumors were induced by implantation of <1 mm^3 tumor sections from serially passaged PANC-1 xenograft tumors into 4-6 week old female nude mice. When the tumors reached approximately 100-200 mm^3 the TfRscFv-LipA-AS HER-2 complex was i.v. injected into the tail vein daily for six days. The dose of ODN (AS or SC) administered per mouse was 10 mg/kg/injection. For comparison to standard therapy, a separate animal received chemotherapeutic agent Gemzar® (i.p.) only (60 mg/kg/injection) every other day to a total of three injections. In addition, one mouse received the combination of TfRscFv-LipA-AS HER-2 and Gemzar® at the above dose and schedule, and, as a control, one received the combination of complex carrying SC ODN and Gemzar® at the above dose and schedule. All mice were sacrificed 24 hours after the last injection and tumor, liver and lung were harvested as in Example 1. To assess tumor specific targeting in this model HER-2 and the 17 kDa cleaved caspase 3 fragment expression in the tissues was examined by Western Blot analysis Examples 3 and 4. The effect of TfRscFv-LipA-AS HER-2 on induction of the 17 kDa fragment in tumor and tissue samples also screened for HER-2 levels was examined.

PANC-1 xenograft tumors = test: In vivo chemosensitization: growth of subcutaneous PANC-1 xenograft tumors; design: species or system mice; details: complex i.v. three times per week, ODN 9 mg/kg (18 injections); Gemzar i.p. twice weekly 60 mg/kg (12 injections)
Procedure: The efficacy of the TfRscFv-LipA-AS HER-2 in treating PanCa in vivo was assessed using the subcutaneous PANC-1 xenograft mouse model. Athymic nude mice (5-9 mice/group with two tumors/mouse) bearing subcutaneous xenograft tumors of ˜50 mm^3 were treated three times per week with the TfRscFv-LipA-AS HER-2 complex containing ODN at 9 mg/kg/injection. As controls one group of animals received Gemzar® alone, the TfRscFv-LipA-AS HER-2 alone, or the combination of Gemzar® and the complex carrying the SC ODN. Gemzar® was given I.P. twice weekly at 60 mg/kg. The animals received a total of 18 i.v. injections of complex and 12 of Gemzar®.

Nc1ccn([C@@H]2O[C@H](CO)[C@@H](O)C2(F)F)c(=O)n1 [Gemzar®, gemcitabine]
expression of 17 kDa fragment [1]: did not result in the expression of this fragment above background levels | cleaved caspase 3 (appearance of the 17 kDa protein) ([2]; 8 hours post-transfection): not in those cells | cleaved PARP ([2]; 16 hours post-transfection): evident | cleaved caspase 3 (17 kDa fragment) ([2]; 16 hours post-transfection): evident | cleaved PARP [3]: little or no evidence | cleaved caspase 3 (17 kDa subunit) [3]: little or no evidence | induction of the 17 kDa fragment in the tumor [4]: not evident | tumor growth (PANC-1 xenograft tumors): only minimal effect
